Measurements reported in patent US7786111B2, “Medicaments for the treatment of chronic obstructive pulmonary disease” (Boehringer Ingelheim Pharma GmbH & Co. KG, priority 2002, dated 2010).
Where a name gives a salt, the structure may show the parent alone.

Row | SMILES | melting point
1 | CC(C)(Cc1ccc(OCCCC(=O)O)cc1)NCC(O)c1cc(O)cc2c1OCC(=O)N2 (centres unmarked) [Example 16, 4-(4-{2-[2-hydroxy-2-(6-hydroxy-3-oxo-3,4-dihydro-2H-benzo[1,4]oxazin-8-yl)ethylamino]-2-methylpropyl}phenoxy)butyric acid] | 201 to 204 °C
2 | Cc1cc(CC(C)(C)NCC(O)c2cc(O)cc3c2OCC(=O)N3)ccc1F (centres unmarked) (as salt: hydrochloride) [Example 10, 8-{2-[2-(4-Fluoro-3-methylphenyl)-1,1-dimethylethylamino]-1-hydroxyethyl}-6-hydroxy-4H-benzo[1,4]oxazin-3-one] | 278 to 280 °C
3 | CC(C)(Cc1ccc(F)cc1F)NCC(O)c1cc(O)cc2c1OCC(=O)N2 (centres unmarked) (as salt: hydrochloride) | 279 to 280 °C
4 | Cc1cc(C)cc(CC(C)(C)NCC(O)c2cc(O)cc3c2OCC(=O)N3)c1 (centres unmarked) (as salt: hydrochloride) [Example 15, 8-{2-[2-(3,5-dimethylphenyl)-1,1-dimethylethylamino]-1-hydroxyethyl}-6-hydroxy-4H-benzo[1,4]oxazin-3-one] | 235 to 238 °C
5 | Cc1cc(F)ccc1CC(C)(C)NCC(O)c1cc(O)cc2c1OCC(=O)N2 (centres unmarked) (as salt: hydrochloride) [Example 11, 8-{2-[2-(4-fluoro-2-methylphenyl)-1,1-dimethylethylamino]-1-hydroxyethyl}-6-hydroxy-4H-benzo[1,4]oxazin-3-one] | 278 to 280 °C
